Data published in PubChem BioAssay AID1963979 (Molecular Pharmacology Branch, DTP, NCI, 2024).

Test system: 361931-004-R-J1-PDC multicell spheroid viability
Assay: Anticancer human tumor 361931-004-R-J1-PDC patient-derived colon adenocarcinoma cell line growth inhibition [PI3K]
Settings: for IC50: curve of first compound; for viability, T/C: stronger effect = lower value
Outline: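 Viability of mixed-cell spheroids was determined after exposure to pairwise combinations, one partner being inavolisib, alpelisib, duvelisib or copanlisib. Highest tested concentration matched clinical Cmax where known and 10 microM where not, descending in half-log steps.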

[1] = second compound 0.0316 µM, first compound 0.0316 µM
[2] = second compound 0.0316 µM, first compound 0.1 µM
[3] = second compound 0.0316 µM, first compound 0.316 µM
[4] = second compound 0.0316 µM, first compound 1 µM
[5] = second compound 0.0316 µM, first compound 3.16 µM
[6] = second compound 0.0316 µM, first compound 10 µM
[7] = second compound 0.1 µM, first compound 0.0316 µM
[8] = second compound 0.1 µM, first compound 0.1 µM
[9] = second compound 0.1 µM, first compound 0.316 µM
[10] = second compound 0.1 µM, first compound 1 µM
[11] = second compound 0.1 µM, first compound 3.16 µM
[12] = second compound 0.1 µM, first compound 10 µM
[13] = second compound 0.316 µM, first compound 0.0316 µM
[14] = second compound 0.316 µM, first compound 0.1 µM
[15] = second compound 0.316 µM, first compound 0.316 µM
[16] = second compound 0.316 µM, first compound 1 µM
[17] = second compound 0.316 µM, first compound 3.16 µM
[18] = second compound 0.316 µM, first compound 10 µM
[19] = second compound 1 µM, first compound 0.0316 µM
[20] = second compound 1 µM, first compound 0.1 µM
[21] = second compound 1 µM, first compound 0.316 µM
[22] = second compound 1 µM, first compound 1 µM
[23] = second compound 1 µM, first compound 3.16 µM
[24] = second compound 1 µM, first compound 10 µM
[25] = second compound 3.16 µM, first compound 0.0316 µM
[26] = second compound 3.16 µM, first compound 0.1 µM
[27] = second compound 3.16 µM, first compound 0.316 µM
[28] = second compound 3.16 µM, first compound 1 µM
[29] = second compound 3.16 µM, first compound 3.16 µM
[30] = second compound 3.16 µM, first compound 10 µM
[31] = second compound 10 µM, first compound 0.0316 µM
[32] = second compound 10 µM, first compound 0.1 µM
[33] = second compound 10 µM, first compound 0.316 µM
[34] = second compound 10 µM, first compound 1 µM
[35] = second compound 10 µM, first compound 3.16 µM
[36] = second compound 10 µM, first compound 10 µM
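Further: spheroids exposed to agents for seven days before readout.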

SMILES: C=CC(=O)N1CCN(c2nc(=O)n(-c3c(C)ccnc3C(C)C)c3nc(-c4c(O)cccc4F)c(F)cc23)C(C)C1 (stereo unspecified) + CC(Nc1ncnc2nc[nH]c12)c1cc2cccc(Cl)c2c(=O)n1-c1ccccc1
- IC50 (second compound 0.0316 µM): > 10 µM
- IC50 (second compound 0.1 µM): > 10 µM
- IC50 (second compound 0.316 µM): > 10 µM
- IC50 (second compound 1 µM): > 10 µM
- IC50 (second compound 3.16 µM): > 10 µM
- IC50 (second compound 10 µM): > 10 µM
- viability, T/C [1]: 102%
- viability, T/C [2]: 102%
- viability, T/C [3]: 104%
- viability, T/C [4]: 104%
- viability, T/C [5]: 102%
- viability, T/C [6]: 99.3%
- viability, T/C [7]: 100%
- viability, T/C [8]: 95.8%
- viability, T/C [9]: 103%
- viability, T/C [10]: 111%
- viability, T/C [11]: 104%
- viability, T/C [12]: 92.5%
- viability, T/C [13]: 105%
- viability, T/C [14]: 108%
- viability, T/C [15]: 103%
- viability, T/C [16]: 98.3%
- viability, T/C [17]: 107%
- viability, T/C [18]: 86.8%
- viability, T/C [19]: 98.7%
- viability, T/C [20]: 109%
- viability, T/C [21]: 103%
- viability, T/C [22]: 106%
- viability, T/C [23]: 102%
- viability, T/C [24]: 90.5%
- viability, T/C [25]: 100%
- viability, T/C [26]: 103%
- viability, T/C [27]: 99.9%
- viability, T/C [28]: 104%
- viability, T/C [29]: 106%
- viability, T/C [30]: 89.9%
- viability, T/C [31]: 104%
- viability, T/C [32]: 108%
- viability, T/C [33]: 98.2%
- viability, T/C [34]: 100%
- viability, T/C [35]: 101%
- viability, T/C [36]: 93.6%

SMILES: Cn1nccc1Nc1nccc(-c2ccn(C(CO)c3ccc(Cl)c(F)c3)c(=O)c2)n1 (stereo unspecified) + COc1c(OCCCN2CCOCC2)ccc2c3n(c(=NC(=O)c4cnc(N)nc4)nc12)CCN3
- IC50 (second compound 0.00316 µM): 9.03 µM
- IC50 (second compound 0.01 µM): 4.53 µM
- IC50 (second compound 0.0316 µM): 1.49 µM
- IC50 (second compound 0.1 µM): 0.45 µM
- IC50 (second compound 0.316 µM): 0.0325 µM
- IC50 (second compound 1 µM): < 0.0316 µM
- viability, T/C (second compound 0.00316 µM, first compound 0.0316 µM): 92.5%
- viability, T/C (second compound 0.00316 µM, first compound 0.1 µM): 98.3%
- viability, T/C (second compound 0.00316 µM, first compound 0.316 µM): 90.9%
- viability, T/C (second compound 0.00316 µM, first compound 1 µM): 86.3%
- viability, T/C (second compound 0.00316 µM, first compound 3.16 µM): 77%
- viability, T/C (second compound 0.00316 µM, first compound 10 µM): 47.2%
- viability, T/C (second compound 0.01 µM, first compound 0.0316 µM): 87.9%
- viability, T/C (second compound 0.01 µM, first compound 0.1 µM): 94.4%
- viability, T/C (second compound 0.01 µM, first compound 0.316 µM): 88.7%
- viability, T/C (second compound 0.01 µM, first compound 1 µM): 80.8%
- viability, T/C (second compound 0.01 µM, first compound 3.16 µM): 59.9%
- viability, T/C (second compound 0.01 µM, first compound 10 µM): 28.6%
- viability, T/C [1]: 92%
- viability, T/C [2]: 87.7%
- viability, T/C [3]: 77.4%
- viability, T/C [4]: 64%
- viability, T/C [5]: 27.9%
- viability, T/C [6]: 12.6%
- viability, T/C [7]: 80.8%
- viability, T/C [8]: 72.3%
- viability, T/C [9]: 58.3%
- viability, T/C [10]: 32.8%
- viability, T/C [11]: 8.5%
- viability, T/C [12]: 3.74%
- viability, T/C [13]: 50.8%
- viability, T/C [14]: 40.2%
- viability, T/C [15]: 26.1%
- viability, T/C [16]: 8.67%
- viability, T/C [17]: 2.32%
- viability, T/C [18]: 2.04%
- viability, T/C [19]: 18.4%
- viability, T/C [20]: 13.3%
- viability, T/C [21]: 8.6%
- viability, T/C [22]: 2.23%
- viability, T/C [23]: 1.89%
- viability, T/C [24]: 1.61%

SMILES: CC1(C)CCC(Nc2ncc(C(F)(F)F)c(-c3c[nH]c4c(P(C)(C)=O)c(C#N)ccc34)n2)CN1 (stereo unspecified) + CC(Nc1ncnc2nc[nH]c12)c1cc2cccc(Cl)c2c(=O)n1-c1ccccc1
- IC50 (second compound 0.0316 µM): 6.27 µM
- IC50 (second compound 0.1 µM): 5.92 µM
- IC50 (second compound 0.316 µM): 5.95 µM
- IC50 (second compound 1 µM): 5.58 µM
- IC50 (second compound 3.16 µM): 5.2 µM
- IC50 (second compound 10 µM): 4.73 µM
- viability, T/C [1]: 106%
- viability, T/C [2]: 108%
- viability, T/C [3]: 104%
- viability, T/C [4]: 101%
- viability, T/C [5]: 103%
- viability, T/C [6]: 13.7%
- viability, T/C [7]: 122%
- viability, T/C [8]: 103%
- viability, T/C [9]: 96%
- viability, T/C [10]: 101%
- viability, T/C [11]: 93.4%
- viability, T/C [12]: 14.5%
- viability, T/C [13]: 108%
- viability, T/C [14]: 106%
- viability, T/C [15]: 99.4%
- viability, T/C [16]: 98%
- viability, T/C [17]: 95.8%
- viability, T/C [18]: 12.4%
- viability, T/C [19]: 110%
- viability, T/C [20]: 101%
- viability, T/C [21]: 98.8%
- viability, T/C [22]: 98.4%
- viability, T/C [23]: 86.9%
- viability, T/C [24]: 12.8%
- viability, T/C [25]: 105%
- viability, T/C [26]: 94.9%
- viability, T/C [27]: 95.8%
- viability, T/C [28]: 94.1%
- viability, T/C [29]: 80.6%
- viability, T/C [30]: 10.6%
- viability, T/C [31]: 93.1%
- viability, T/C [32]: 90.8%
- viability, T/C [33]: 88.9%
- viability, T/C [34]: 88%
- viability, T/C [35]: 74%
- viability, T/C [36]: 5.6%
